The conditions of test [1]: J. Karnatak Univ., Sci. (1984), 29, 82-6; cited from earlier work.
The target in test [2] is T1, VEGF receptor tyrosine kinase (Homo sapiens, UniProt P17948).
T1 construct: encoding most of the cytoplasmic domain, commencing with methionine 783 and including the termination codon; made in house; host or cells: Spodoptera frugiperda Sf21 insect cells (baculovirus); cleared Triton X100 lysate used as enzyme stock
T1 sequence (P17948 781-1338 limits assumed): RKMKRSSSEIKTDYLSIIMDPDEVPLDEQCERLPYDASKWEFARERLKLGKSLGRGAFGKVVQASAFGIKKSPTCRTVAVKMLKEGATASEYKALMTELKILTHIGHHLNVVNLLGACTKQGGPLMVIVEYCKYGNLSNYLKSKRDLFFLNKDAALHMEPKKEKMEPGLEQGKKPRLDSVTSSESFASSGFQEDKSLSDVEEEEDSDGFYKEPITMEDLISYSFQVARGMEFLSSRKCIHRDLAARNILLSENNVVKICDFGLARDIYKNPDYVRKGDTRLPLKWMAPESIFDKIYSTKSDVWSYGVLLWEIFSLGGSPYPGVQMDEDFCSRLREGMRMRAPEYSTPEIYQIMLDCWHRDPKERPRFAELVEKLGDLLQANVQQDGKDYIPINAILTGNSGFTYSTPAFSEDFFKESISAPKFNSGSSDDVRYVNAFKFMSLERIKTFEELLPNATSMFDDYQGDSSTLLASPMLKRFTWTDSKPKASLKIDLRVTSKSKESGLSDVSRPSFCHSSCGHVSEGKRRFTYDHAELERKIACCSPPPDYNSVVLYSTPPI
Nature of the test: In vitro receptor tyrosine kinase inhibition test (VEGF receptor). It is filed as biochemical. The source says:
(§1) (a) In Vitro Receptor Tyrosine Kinase Inhibition Test
This assay determines the ability of a test compound to inhibit tyrosine kinase activity. […] These may then be expressed in a suitable expression system to obtain polypeptide with tyrosine kinase activity. […] This recombinant construct was co-transfected into insect cells (for example Spodoptera frugiperda 21 (Sf21)) with viral DNA (eg Pharmingen BaculoGold) to prepare recombinant baculovirus.
For expression of cFlt tyrosine kinase activity, Sf21 cells were infected with plaque-pure cFlt recombinant virus at a multiplicity of infection of 3 and harvested 48 hours later. […] The suspension was centrifuged for 10 minutes at 13.000 rpm at 4° C., the supernatant (enzyme stock) was removed and stored in aliquots at −70° C. Each new batch of stock enzyme was titrated in the assay by dilution with enzyme diluent (100 mM Hepes pH 7.4, 0.2 mM Na3VO4, 0.1% v/v Triton X100, 0.2 mM dithiothreitol). For a typical batch, stock enzyme is diluted 1 in 2000 with enzyme diluent and 50 μl of dilute enzyme is used for each assay well.
(§2) A stock of substrate solution was prepared from a random copolymer containing tyrosine, for example Poly (Glu, Ala, Tyr) 6:3:1 (Sigma P3899), stored as 1 mg/ml stock in PBS at −20° C. and diluted 1 in 500 with PBS for plate coating.
(§3) On the day before the assay 100 μl of diluted substrate solution was dispensed into all wells of assay plates (Nunc maxisorp 96-well immunoplates) which were sealed and left overnight at 4° C.
(§4) On the day of the assay the substrate solution was discarded and the assay plate wells were washed once with PBST (PBS containing 0.05% v/v Tween 20) and once with 50 mM Hepes pH7.4.
Test compounds were diluted with 10% dimethylsulphoxide (DMSO) and 25 μl of diluted compound was transferred to wells in the washed assay plates. “Total” control wells contained 10% DMSO instead of compound. Twenty five microliters of 40 mM MnCl2 containing 8 μM adenosine-5′-triphosphate (ATP) was added to all test wells except “blank” control wells which contained MnCl2 without ATP. To start the reactions 50 μl of freshly diluted enzyme was added to each well and the plates were incubated at room temperature for 20 minutes. The liquid was then discarded and the wells were washed twice with PBST. […] Plates were then incubated for 20-60 minutes at room temperature until the optical density value of the “total” control wells, measured at 405 nm using a plate reading spectrophotometer, was approximately 1.0.

In test [3] the target is T2, epidermal growth factor (EGF) receptor tyrosine kinase (Homo sapiens, UniProt P00533).
T2 construct: made in house; host or cells: insect cells (baculovirus, as for Flt)
Nature of the test: In vitro receptor tyrosine kinase inhibition test (EGF receptor). It is filed as biochemical.
Excerpt: as §1
This assay determines the ability of a test compound to inhibit tyrosine kinase activity. DNA encoding VEGF or epidermal growth factor (EGF) receptor cytoplasmic domains may be obtained by total gene synthesis (Edwards M, International Biotechnology Lab 5(3), 19-25, 1987) or by cloning. These may then be expressed in a suitable expression system to obtain polypeptide with tyrosine kinase activity. […] In the case of the VEGF receptor Flt (Genbank accession number X51602), a 1.7 kb DNA fragment encoding most of the cytoplasmic domain, commencing with methionine 783 and including the termination codon, described by Shibuya et al (Oncogene, 1990, 5: 519-524), was isolated from cDNA and cloned into a baculovirus transplacement vector (for example pAcYM1 (see The Baculovirus Expression System: A Laboratory Guide, L. A. King and R. D. Possee, Chapman and Hall, 1992) or pAc360 or pBlueBacHis (available from Invitrogen Corporation)). This recombinant construct was co-transfected into insect cells (for example Spodoptera frugiperda 21 (Sf21)) with viral DNA (eg Pharmingen BaculoGold) to prepare recombinant baculovirus. (Details of the methods for the assembly of recombinant DNA molecules and the preparation and use of recombinant baculovirus can be found in standard texts for example Sambrook et al, 1989. Molecular cloning—A Laboratory Manual, 2nd edition, Cold Spring Harbour Laboratory Press and O'Reilly et al, 1992, Baculovirus Expression Vectors—A Laboratory Manual. W. H. Freeman and Co. New York). For other tyrosine kinases for use in assays, cytoplasmic fragments starting from methionine 806 (KDR, Genbank accession number L04947) and methionine 668 (EGF receptor, Genbank accession number X00588) may be cloned and expressed in a similar manner.
For expression of cFlt tyrosine kinase activity, Sf21 cells were infected with plaque-pure cFlt recombinant virus at a multiplicity of infection of 3 and harvested 48 hours later. Harvested cells were washed with ice cold phosphate buffered saline solution (PBS) (10 mM sodium phosphate pH7.4, 138 mM NaCl, 2.7 mM KCl) then resuspended in ice cold HNTG/PMSF (20 mM Hepes pH7.5, 150 mM NaCl, 10% v/v glycerol, 1% v/v Triton X100. 1.5 mM MgCl2, 1 mM ethylene glycol-bis(βaminoethyl ether) N,N,N′,N′-tetraacetic acid (EGTA), 1 mM PMSF (phenylmethylsulphonyl fluoride); the PMSF is added just before use from a freshly-prepared 100 mM solution in methanol) using 1 ml HNTG/PMSF per 10 million cells. The suspension was centrifuged for 10 minutes at 13.000 rpm at 4° C., the supernatant (enzyme stock) was removed and stored in aliquots at −70° C. Each new batch of stock enzyme was titrated in the assay by dilution with enzyme diluent (100 mM Hepes pH 7.4, 0.2 mM Na3VO4, 0.1% v/v Triton X100, 0.2 mM dithiothreitol). For a typical batch, stock enzyme is diluted 1 in 2000 with enzyme diluent and 50 μl of dilute enzyme is used for each assay well.
as §2, §3, §4
Test compounds were diluted with 10% dimethylsulphoxide (DMSO) and 25 μl of diluted compound was transferred to wells in the washed assay plates. “Total” control wells contained 10% DMSO instead of compound. Twenty five microliters of 40 mM MnCl2 containing 8 μM adenosine-5′-triphosphate (ATP) was added to all test wells except “blank” control wells which contained MnCl2 without ATP. […]

Structures are written as SMILES.

T2 sequence (P00533 669-1210 limits assumed): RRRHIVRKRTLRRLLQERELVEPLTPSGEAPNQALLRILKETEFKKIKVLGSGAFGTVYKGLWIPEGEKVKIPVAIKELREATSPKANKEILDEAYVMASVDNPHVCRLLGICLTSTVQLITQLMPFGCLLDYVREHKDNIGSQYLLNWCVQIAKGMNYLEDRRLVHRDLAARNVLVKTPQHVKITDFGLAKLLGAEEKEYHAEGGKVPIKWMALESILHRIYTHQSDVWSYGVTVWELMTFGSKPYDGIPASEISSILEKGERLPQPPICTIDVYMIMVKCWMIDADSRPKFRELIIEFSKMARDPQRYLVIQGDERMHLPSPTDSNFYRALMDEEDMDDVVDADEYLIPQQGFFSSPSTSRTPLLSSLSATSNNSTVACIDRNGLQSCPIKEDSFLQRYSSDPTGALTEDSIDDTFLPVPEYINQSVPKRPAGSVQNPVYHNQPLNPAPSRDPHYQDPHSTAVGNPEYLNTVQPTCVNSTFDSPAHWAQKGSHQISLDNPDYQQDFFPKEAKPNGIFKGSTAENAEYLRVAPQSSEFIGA

`COc1ccc(Nc2cnnc3cc(OC)c(OC)cc23)cc1` [4-(4-methoxyanilino)-6,7-dimethoxycinnoline]: the “anti-inflammatory and antiarthritic activity” value in test [1] is “some anti-inflammatory and antiarthritic activity”.
Take `COc1cc2nncc(Nc3cccc(Cl)c3)c2cc1OC` [4-(3-chloroanilino)-6,7-dimethoxycinnoline]: the “anti-inflammatory and antiarthritic activity” value in test [1] was “some anti-inflammatory and antiarthritic activity”.
For `COCCOc1cc2nncc(Nc3cc(O)c(C)cc3F)c2cc1OC` [4-(2-fluoro-5-hydroxy-4-methylanilino)-6-methoxy-7-(2-methoxyethoxy)cinnoline], the “activity against VEGF receptor tyrosine kinase” value in test [2] is “good activity”. Moreover, the “activity against epidermal growth factor (EGF) receptor tyrosine kinase” value in test [3] was “lack of significant activity”.
On the same counts, the results for `COc1cc2c(Nc3cc(O)c(C)cc3F)cnnc2cc1OCc1csc(C)n1` [4-(2-fluoro-5-hydroxy-4-methylanilino)-6-methoxy-7-[(2-methylthiazol-4-yl)methoxy]cinnoline] are “good activity” and “lack of significant activity”.
